Values of other authors as cited in US20080011293A1, “Stable Xylometazoline and Oxymetazoline Solution” (priority 1999, published 2008).
Where two headings read alike, the source gives them in different places.

System: Pseudomonas aeruginosa

Compound	concentration above which the inhibitory effect sets in (pH of 5.6 adjusted using HCl and NaOH)	concentration above which the inhibitory effect sets in (pH of 7.4 (neutral))	concentration required to trigger the inhibitory effect (under acid conditions) [% by weight]
OCC(O)CO [glycerol]	above 25 % by weight	above 30 % by weight	–
OC[C@@H](O)[C@@H](O)[C@H](O)[C@@H](O)CO [sorbitol]	–	identical	40
